Among the data in PubChem BioAssay (NCI) are GI50 and TGI values, retold here.

Holding throughout (assay): DTP human tumour cell line panel, 48 h
Assay [1] has as its system MDA-MB-231 breast.
In assay [2] the test system is HCT-15 colon.
Assay [3] has as its system MCF7 breast.
For assay [4], the system named is OVCAR-5 ovarian.
Assay [5] concerns TK-10 renal.
In assay [6] the test system is SF-295 CNS.
Assay [7] relates to SK-MEL-28 melanoma.
The subject of assay [8] is SK-MEL-5 melanoma.
Assay [9] relates to HCC-2998 colon.

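Growth conditions: 96-well plates. Treatment: test compound, 48 hours, 5 concentrations. Analysis: linear interpolation between bracketing concentrations; unreached endpoints set to highest concentration. Abbreviation: GI50, concentration required for 50% inhibition of growth. TGI marks complete inhibition of growth.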 Bounds are passed on as bounds.

For orientation: GI50 means the concentration at which growth is held to half of that of the control. As usually defined, the TGI is the concentration giving total growth inhibition. In the case of `C(=C\c1ccncc1)/c1ccncc1`, the GI50 in [1], in assay [2], in [3], in assay [4], in [5] and in assay [6] was greater than 100 µM in each case. Further, the GI50 in [7] and in [8] was greater than 100 µM in each case. In addition, the TGI in [1], in [2], in assay [3], in assay [4], in assay [5] and in assay [6] was greater than 100 µM throughout. For the same compound, the TGI in assay [7] and in assay [8] was greater than 100 µM in each case.

For `COC(=O)c1ccc(C(=O)OC)c2nc3cc(Cl)ccc3nc12`, the TGI in assay [2], in assay [4], in assay [9], in assay [5], in assay [6] and in [7] was greater than 100 µM throughout. In addition, the TGI in [8] is greater than 100 µM.

Turning to `CCOC(=O)/C(C#N)=C\Sc1ccccc1`, the TGI was 58.6 µM in assay [4]; greater than 100 µM in [5]; 48.5 µM in assay [6]; 42.8 µM in assay [7]; greater than 100 µM in assay [8].

With `O=C1C(Cl)=C(Cl)C(=O)N1c1cccc(C(F)(F)F)c1`, the TGI in [2], in assay [4], in assay [9], in [5], in assay [6] and in assay [7] was greater than 100 µM each time. The compound also returned a TGI in assay [8] greater than 100 µM.

With `CCCS(=O)c1nc(COC(=O)NC)c(COC(=O)NC)n1C` (configuration not stated), the TGI in [2], in assay [3], in [4], in assay [9], in assay [6] and in [7] was greater than 100 µM in each case. Further, in assay [8], the TGI was greater than 100 µM.

In the case of `O=C(O)/C(Cl)=C(Cl)/C=N/NC(=O)c1cc2ccccc2cc1O`, the TGI in assay [2] was greater than 100 µM; in [4], 61.5 µM; in [5], greater than 100 µM; in assay [6] it was greater than 100 µM; in assay [7], greater than 100 µM; in assay [8], 24.6 µM.

On to `C[C@]12CC(C=O)C(=O)C(O)=C1CC[C@@H]1C2CC[C@@]2(C)C1CC[C@]2(C)O` (some centres not stated), for which the TGI in assay [2] amounted to 60.8 µM; in assay [4] it was 32.6 µM; in [9] it was 31.1 µM; in [5] it was 99.5 µM; in assay [6], 66.6 µM; in [7] it was 68.1 µM. In [8], this compound displayed a TGI of 34.5 µM.

Regarding `NC(=O)C(=O)C1C(=O)N(c2ccccc2)N=C1N` (configuration not stated), the TGI in assay [2], in assay [4], in [9], in [5], in [6] and in assay [7] was greater than 100 µM in each case.

Take `CC(=O)[CH-]C(=O)c1ccccc1.CC(=O)[CH-]C(=O)c1ccccc1.CC[C@H](/C=C/C(C)[C@H]1CCC2[C@@H]3CC=C4C[C@@H]([O-])CC[C@]4(C)C3CC[C@@]21C)C(C)C.CC[C@H](/C=C/C(C)[C@H]1CCC2[C@@H]3CC=C4C[C@@H]([O-])CC[C@]4(C)C3CC[C@@]21C)C(C)C.Cl.[Ti+4]` (some centres not stated): the GI50 in [2] was greater than 25 µM; in [4], greater than 25 µM; in [9], greater than 25 µM; in assay [5] it was greater than 25 µM; in assay [6] it was greater than 25 µM; in assay [7] it was 6.08 µM. Further, the GI50 in [8] was greater than 25 µM. The TGI in assay [2], in [4], in [9], in [5], in [6] and in assay [7] was greater than 25 µM each time. This compound yielded a TGI in [8] greater than 25 µM.

`N#CC(C(=N/O)/C(=N\O)C(C#N)c1ccccc1)c1ccccc1` (configuration not stated): the TGI in [2], in [4], in [9], in [5], in assay [6] and in [7] was greater than 100 µM in each case. For the same compound, the TGI in [8] was greater than 100 µM.

Regarding `CCCCCN(CCCCC)C(=O)[C@H](CCC(=O)O)NC(=O)c1cc2ccccc2[nH]1`, the TGI in [2] is greater than 100 µM; in assay [4], greater than 100 µM; in assay [9] it was greater than 100 µM; in [5] it was greater than 100 µM; in assay [6], greater than 100 µM; in [7], 96.4 µM.

Turning to `Cc1cc(-c2nc3n(c2/C=N/N=C(N)N)CCS3)c(C)s1`, the GI50 is 13.4 µM in [1]; 14.8 µM in assay [2]; 14.9 µM in assay [4]; 33.6 µM in assay [5]; 15.6 µM in [6]; 15.1 µM in assay [7]. In addition, the GI50 in assay [8] is 16.3 µM. Also, the concentration for total growth inhibition (TGI) was 27.1 µM in assay [1]; 28 µM in [2]; 29.8 µM in assay [4]; greater than 100 µM in [5]; 29 µM in assay [6]; 29.4 µM in assay [7]. This compound also came in with a TGI in assay [8] of 29.9 µM.

Consider `COc1cccc2c(SCC(=O)Nc3ccccc3-c3ccccc3NC(=O)CSc3c4ccccc4nc4c(OC)cccc34)c3ccccc3nc12`, for which the TGI in assay [2], in assay [4], in assay [9], in assay [5], in [6] and in [7] was greater than 100 µM each time. In addition, in assay [8], the TGI is greater than 100 µM.

Take `C=C(C)C1CCC2=CC(CC3(C)OC3C3=CC(C(=O)OC)=C(C1)O3)OC2=O` (configuration not stated): the TGI in assay [1], in assay [2], in assay [3], in assay [4], in assay [5] and in assay [6] was greater than 100 µM throughout. The TGI in assay [7] and in [8] was greater than 100 µM each time.
